pKi: −log10 of the molar value.
What was measured:
Human σ1 receptor = target: T1, Human σ1 receptor (Homo sapiens, UniProt Q99720); test: Human σ1 receptor radioligand assay ([3H](+)-pentazocine binding); settings: binding to the σ1 receptor, expressed as Ki class; + also covers inhibition between 1% and 50%
T1 construct: expressed in transfected cells; host or cells: HEK-293
Protocol: Human σ1 Receptor Radioligand Assay
Transfected HEK-293 membranes (7 μg) were incubated with 5 nM of [^3H](+)-pentazocine in assay buffer containing Tris-HCl 50 mM at pH 8. NBS (non-specific binding) was measured by adding 10 μM haloperidol. The binding of the test compound was measured at either one concentration (% inhibition at 1 or 10 μM) or five different concentrations to determine affinity values (Ki). Plates were incubated at 37° C. for 120 minutes. After the incubation period, the reaction mix was then transferred to MultiScreen HTS, FC plates (Millipore), filtered and plates were washed 3 times with ice-cold 10 mM Tris-HCL (pH7.4). Filters were dried and counted at approximately 40% efficiency in a MicroBeta scintillation counter (Perkin-Elmer) using EcoScint liquid scintillation cocktail.

[1] = target: Human α2δ-1 subunit of Cav2.2 calcium channel (Homo sapiens, UniProt P54289); test: Human α2δ-1 subunit of Cav2.2 calcium channel assay ([3H]-gabapentin binding); settings: binding to the α2δ-1 subunit of voltage-gated calcium channels, expressed as Ki class; + also covers inhibition between 1% and 50%
Chain of Human α2δ-1 subunit of Cav2.2 calcium channel (P54289 25-1103): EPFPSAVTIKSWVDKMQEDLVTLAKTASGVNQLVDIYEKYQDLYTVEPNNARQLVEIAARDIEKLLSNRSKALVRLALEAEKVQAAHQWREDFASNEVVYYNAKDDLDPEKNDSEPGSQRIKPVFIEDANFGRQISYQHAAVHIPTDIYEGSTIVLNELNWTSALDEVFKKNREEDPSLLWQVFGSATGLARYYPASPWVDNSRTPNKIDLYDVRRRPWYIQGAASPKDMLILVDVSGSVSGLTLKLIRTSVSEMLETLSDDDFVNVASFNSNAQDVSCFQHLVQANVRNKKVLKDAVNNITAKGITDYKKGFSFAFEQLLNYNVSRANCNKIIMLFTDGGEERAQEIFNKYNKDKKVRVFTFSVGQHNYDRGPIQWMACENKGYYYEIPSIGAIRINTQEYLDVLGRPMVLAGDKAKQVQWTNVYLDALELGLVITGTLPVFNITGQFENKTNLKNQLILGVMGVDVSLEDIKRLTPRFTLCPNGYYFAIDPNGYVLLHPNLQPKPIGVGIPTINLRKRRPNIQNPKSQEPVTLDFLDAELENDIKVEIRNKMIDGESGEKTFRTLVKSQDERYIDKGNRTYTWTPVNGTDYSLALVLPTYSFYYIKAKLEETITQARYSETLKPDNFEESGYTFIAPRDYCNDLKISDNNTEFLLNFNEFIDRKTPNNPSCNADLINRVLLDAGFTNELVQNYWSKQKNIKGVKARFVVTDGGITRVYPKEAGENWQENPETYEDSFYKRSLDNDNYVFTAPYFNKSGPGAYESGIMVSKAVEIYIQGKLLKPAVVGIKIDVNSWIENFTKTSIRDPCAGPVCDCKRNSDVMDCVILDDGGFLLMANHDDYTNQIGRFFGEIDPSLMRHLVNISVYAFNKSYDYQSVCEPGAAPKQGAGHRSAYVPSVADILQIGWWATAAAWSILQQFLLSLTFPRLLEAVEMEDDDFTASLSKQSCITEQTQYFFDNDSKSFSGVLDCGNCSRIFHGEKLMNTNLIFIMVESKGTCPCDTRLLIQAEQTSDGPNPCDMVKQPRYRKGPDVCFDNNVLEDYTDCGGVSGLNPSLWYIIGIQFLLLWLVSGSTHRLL
Protocol: Human α2δ-1 Subunit of Cav2.2 Calcium Channel Assay
Human α2δ-1 enriched membranes (2.5 μg) were incubated with 15 nM of radiolabeled [^3H]-Gabapentin in assay buffer containing Hepes-KOH 10 mM. pH 7.4. NSB (non specific binding) was measured by adding 10 μM pregabalin. The binding of the test compound was measured at either one concentration (% inhibition at 1 or 10 μM) or five different concentrations to determine affinity values (Ki). After 60 min incubation at 27° C., binding reaction was terminated by filtering through Multiscreen GF/C (Millipore) presoaked in 0.5% polyethyleneimine in Vacuum Manifold Station, followed by 3 washes with ice-cold filtration buffer containing 50 mM Tris-HCl, pH 7.4. Filter plates were dried at 60° C. for 1 h and 30 μL of scintillation cocktail were added to each well before radioactivity reading. Readings were performed in a Trilux 1450 Microbeta radioactive counter (Perkin Elmer).

T1 sequence (Q99720 whole entry): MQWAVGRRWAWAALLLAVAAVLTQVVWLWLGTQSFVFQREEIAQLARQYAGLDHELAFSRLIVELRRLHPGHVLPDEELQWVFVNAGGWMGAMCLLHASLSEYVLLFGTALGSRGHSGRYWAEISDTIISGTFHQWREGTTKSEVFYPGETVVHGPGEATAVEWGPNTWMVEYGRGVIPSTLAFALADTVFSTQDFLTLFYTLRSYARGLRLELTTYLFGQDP

With CCCC(c1nc2ncc(F)cc2c(=O)n1CC1CC1)N1CCN[C@@H](C)CC1 (single isomer, unassigned) [Example 194] the pKi (Human σ1 receptor) was less than 6.00 and the pKi [1] was less than 5.30.
CCCC(c1nc2ccc(Br)cc2c(=O)n1CC)N1CCCN(C)CC1 (stereo not shown) [Example 1, 6-Bromo-3-ethyl-2-(1-(4-methyl-1,4-diazepan-1-yl)butyl)quinazolin-4(3H)-one] was tested, and the pKi (Human σ1 receptor) was greater than 6.30 and the pKi [1] was greater than 6.30.
CCCC(c1nc2ccc(Br)cc2c(=O)n1CC)N1CCCNCC1 (stereo not shown) [Example 2, 2-(1-(1,4-diazepan-1-yl)butyl)-6-bromo-3-ethylquinazolin-4(3H)-one] gave a pKi (Human σ1 receptor) of less than 6.00 and a pKi [1] greater than 6.30.
CCCC(c1nc2cc(Br)ccc2c(=O)n1CC)N1CCCN(C)CC1 (stereo not shown) [Example 3, 7-bromo-3-ethyl-2-(1-(4-methyl-1,4-diazepan-1-yl)butyl)quinazolin-4(3H)-one] showed a pKi (Human σ1 receptor) of less than 6.00 and a pKi [1] greater than 6.30.
In the case of CCCC(c1nc2cc(Br)ccc2c(=O)n1CC)N1CCCNCC1 (stereo not shown) [Example 4, 2-(1-(1,4-diazepan-1-yl)butyl)-7-bromo-3-ethylquinazolin-4(3H)-one], the pKi (Human σ1 receptor) was less than 6.00 and the pKi [1] was greater than 6.30.
CCCC(c1nc2ccc(Br)cc2c(=O)n1CC)N1CCCN(CCc2ccccc2)CC1 (stereo not shown) [Example 5, 6-bromo-3-ethyl-2-(1-(4-phenethyl-1,4-diazepan-1-yl)butyl)quinazolin-4(3H)-one] showed a pKi (Human σ1 receptor) greater than 6.30 and a pKi [1] of 5.30 to 6.30.
With CCCC(c1nc2ccc(Br)cc2c(=O)n1CC)N1CCCN(Cc2ccccc2)CC1 (stereo not shown) [Example 6, 2-(1-(4-benzyl-1,4-diazepan-1-yl)butyl)-6-bromo-3-ethylquinazolin-4(3H)-one] the pKi (Human σ1 receptor) was greater than 6.30 and the pKi [1] was less than 5.30.
In the case of CCCC(c1nc2ccc(Br)cc2c(=O)n1CC)N1CCCN(CC)CC1 (stereo not shown) [Example 7, 6-bromo-3-ethyl-2-(1-(4-ethyl-1,4-diazepan-1-yl)butyl)quinazolin-4(3H)-one], the pKi (Human σ1 receptor) was greater than 6.30 and the pKi [1] was greater than 6.30.
CCCC(c1nc2ccc(C)cc2c(=O)n1CC)N1CCCN(C)CC1 (stereo not shown) [Example 8, 3-ethyl-6-methyl-2-(1-(4-methyl-1,4-diazepan-1-yl)butyl)quinazolin-4(3H)-one] was tested, and the pKi (Human σ1 receptor) was less than 6.00 and the pKi [1] was greater than 6.30.
Compound CCCC(c1nc2cc(C#N)ccc2c(=O)n1CC)N1CCCN(C)CC1 (stereo not shown) [Example 9, 3-ethyl-2-(1-(4-methyl-1,4-diazepan-1-yl)butyl)-4-oxo-3,4-dihydroquinazoline-7-carbonitrile] has a pKi (Human σ1 receptor) of less than 6.00 and a pKi [1] greater than 6.30.
CCCC(c1nc2ccc(C#N)cc2c(=O)n1CC)N1CCCN(C)CC1 (stereo not shown) [Example 10, 3-ethyl-2-(1-(4-methyl-1,4-diazepan-1-yl)butyl)-4-oxo-3,4-dihydroquinazoline-6-carbonitrile] showed a pKi (Human σ1 receptor) of less than 6.00 and a pKi [1] greater than 6.30.
For CCCC(c1nc2cc(C)ccc2c(=O)n1CC)N1CCCN(C)CC1 (stereo not shown) [Example 11, 3-ethyl-7-methyl-2-(1-(4-methyl-1,4-diazepan-1-yl)butyl)quinazolin-4(3H)-one], the pKi (Human σ1 receptor) was less than 6.00 and the pKi [1] was greater than 6.30.
For CCCC(c1nc2ccc(I)cc2c(=O)n1CC)N1CCCN(C)CC1 (stereo not shown) [Example 12, 3-ethyl-6-iodo-2-(1-(4-methyl-1,4-diazepan-1-yl)butyl)quinazolin-4(3H)-one], the pKi (Human σ1 receptor) was greater than 6.30 and the pKi [1] was greater than 6.30.
With CCCC(c1nc2cc(F)c(Br)cc2c(=O)n1CC)N1CCCN(C)CC1 (stereo not shown) [Example 13, 6-bromo-3-ethyl-7-fluoro-2-(1-(4-methyl-1,4-diazepan-1-yl)butyl)quinazolin-4(3H)-one] the pKi (Human σ1 receptor) was greater than 6.30 and the pKi [1] was greater than 6.30.
Compound CCCC(c1nc2ccc(Br)cc2c(=O)n1CCOC)N1CCCN(C)CC1 (stereo not shown) [Example 14, 6-bromo-3-(2-methoxyethyl)-2-(1-(4-methyl-1,4-diazepan-1-yl)butyl)quinazolin-4(3H)-one] has a pKi (Human σ1 receptor) of less than 6.00 and a pKi [1] of 5.30 to 6.30.
In the case of CCCC(c1nc2ccc(Br)c(F)c2c(=O)n1CC)N1CCCN(C)CC1 (stereo not shown) [Example 51, 6-bromo-3-ethyl-5-fluoro-2-(1-(4-methyl-1,4-diazepan-1-yl)butyl)quinazolin-4(3H)-one], the pKi (Human σ1 receptor) was greater than 6.30.

From patent US12479830B2, “Homopiperazinyl and homopiperidinyl quinazolin-4(3H)-one derivatives having multimodal activity against pain” (ESTEVE PHARMACEUTICALS, S.A., priority 2019, dated 2025)
